According to patent US8110592B2, “Agrochemical formulations that can be dispersed in water containing polyalkoxytriglycerides as penetration enhances” (priority 2006, dated 2012):

System: apple leaf cuticles
Experiment: Penetration of active compounds through enzymatically isolated apple leaf cuticles
Format: in vitro ADME, apple trees of the Golden Delicious variety
Excerpt: Penetration* of spirotetramate with penetrants according to the invention compared to the control without penetrant and the rapid-action uptake enhancer Genapol® X150. All penetrants employed at 0.5 g/l.
This test measured the penetration of active compounds through enzymatically isolated cuticles of apple leaves.
The leaves used were cut in the fully developed state from apple trees of the Golden Delicious variety. The cuticles were isolated as follows: • first of all, leaf discs labelled on the underside with dye and formed by punching were filled by means of vacuum infiltration with a pectinase solution (0.2% to 2% strength) buffered to a pH of between 3 and 4, • then sodium azide was added and • the leaf discs thus treated were left to stand until the original leaf structure broke down and the non-cellular cuticles underwent detachment.
Thereafter only those cuticles from the top leaf sides that were free from stomata and hairs were used further. They were washed a number of times in alternation with water and with a buffer solution, pH 7. The clean cuticles obtained were, finally, applied to Teflon plaques and smoothed and dried with a gentle jet of air.
In the next step the cuticular membranes obtained in this way were placed in stainless steel diffusion cells (transport chambers) for the purpose of membrane transport investigations. For these investigations the cuticles were placed centrally using tweezers on the edges of the diffusion cells, which were coated with silicone grease, and sealed with a ring, which was likewise greased. The arrangement was chosen so that the morphological outer side of the cuticles was directed outwards, in other words to the air, while the original inner side was facing the interior of the diffusion cell.
The diffusion cells were filled with a 1% phospholipid suspension. Penetration was determined by applying in each case 10 μl of the spray liquor of the composition below, containing radiolabeled active compound in the stated concentrations, to the outer face of the cuticles. The spray liquor is prepared using local tap water of average hardness.
After the spray liquors had been applied, the water was evaporated and then the chambers were inverted and placed in thermostatted troughs, in which the temperature and air humidity over the cuticles was adjustable by means of a gentle air stream onto the cuticles with the spray coating (20° C., 60% rh). At regular intervals, an autosampler took aliquots which were subjected to measurement in a scintillation counter.
Facilitation of the penetration of various active compounds* by penetrants according to the invention exemplified by Crovol® CR70G in comparison to the control.

[1] = with 0.5 g/l Crovol CR70G, after 24 hours
[2] = with 0.5 g/l Crovol CR70G, after 72 hours
[3] = without Crovol CR70G, after 24 hours
[4] = without Crovol CR70G, after 72 hours
[5] = spirotetramate 0.2 g/l, control without additive

SMILES | % penetration (after hours) [1] | % penetration (after hours) [2] | % penetration (after hours) [3] | % penetration (after hours) [4] | % penetration (after hours) (apple (Malus domestica), 6 h) | % penetration (after hours) (apple (Malus domestica), 18 h) | % penetration (after hours) (apple (Malus domestica), 24 h) | % penetration (after hours) (apple (Malus domestica), 48 h) | % penetration after 24 h [5] | % penetration after 3 days [5]
CC(C)(C)C(O)(CCc1ccc(Cl)cc1)Cn1cncn1 (centres unmarked) [Tebuconazole, tebuconazole] | 6.0% | 31.5% | <2% | <2% | – | – | – | – | – | –
CS(=O)(=O)c1ccc(C(=O)C2C(=O)CCCC2=O)c(Cl)c1COCC(F)(F)F [Tembotrione, tembotrione] | – | – | – | – | <1% | <1% | – | – | – | –
O=[N+]([O-])NC1=NCCN1Cc1ccc(Cl)nc1 [Imidacloprid, imidacloprid] | – | – | – | – | – | – | 0.7% | 2.2% | – | –
CCOC(=O)OC1=C(c2cc(C)ccc2C)C(=O)N[C@]12CC[C@@H](OC)CC2 [spirotetramate] | 5.8% | 40.5% | 0.1% | 0.3% | – | – | – | – | 0.1% | 0.3%
